Test results taken from paper PMC8275010 (Nature medicine, 2021).
“And” between values parts separate entries of the source, which are not always exact repeats. Equal values may be shown once. Each block holds one compound with its values, some of them ahead of it.

What was measured:
[1] = system: human immortalized NF1−/− Schwann cells (iPNF95.6); experiment: Caspase 3/7 Glo apoptosis assay; type: cell-based; details: 24 hours; cabozantinib 39 nM to 5 μM; Navitoclax 1 μM positive control
[2] = type: in vivo, mouse
[3] = system: plexiform neurofibroma in Nf1^flox/flox;PostnCre mice; experiment: Plexiform neurofibroma tumor burden and histopathology in Nf1flox/flox; type: in vivo, mouse
AXL [4] = target: T1, AXL (Mus musculus, UniProt Q00993); experiment: AXL in tumor bearing nerve tissue of treated mice; type: in vivo; details: 12 weeks of treatment vs vehicle; IHC and western blot
T1 sequence (Q00993 19-888): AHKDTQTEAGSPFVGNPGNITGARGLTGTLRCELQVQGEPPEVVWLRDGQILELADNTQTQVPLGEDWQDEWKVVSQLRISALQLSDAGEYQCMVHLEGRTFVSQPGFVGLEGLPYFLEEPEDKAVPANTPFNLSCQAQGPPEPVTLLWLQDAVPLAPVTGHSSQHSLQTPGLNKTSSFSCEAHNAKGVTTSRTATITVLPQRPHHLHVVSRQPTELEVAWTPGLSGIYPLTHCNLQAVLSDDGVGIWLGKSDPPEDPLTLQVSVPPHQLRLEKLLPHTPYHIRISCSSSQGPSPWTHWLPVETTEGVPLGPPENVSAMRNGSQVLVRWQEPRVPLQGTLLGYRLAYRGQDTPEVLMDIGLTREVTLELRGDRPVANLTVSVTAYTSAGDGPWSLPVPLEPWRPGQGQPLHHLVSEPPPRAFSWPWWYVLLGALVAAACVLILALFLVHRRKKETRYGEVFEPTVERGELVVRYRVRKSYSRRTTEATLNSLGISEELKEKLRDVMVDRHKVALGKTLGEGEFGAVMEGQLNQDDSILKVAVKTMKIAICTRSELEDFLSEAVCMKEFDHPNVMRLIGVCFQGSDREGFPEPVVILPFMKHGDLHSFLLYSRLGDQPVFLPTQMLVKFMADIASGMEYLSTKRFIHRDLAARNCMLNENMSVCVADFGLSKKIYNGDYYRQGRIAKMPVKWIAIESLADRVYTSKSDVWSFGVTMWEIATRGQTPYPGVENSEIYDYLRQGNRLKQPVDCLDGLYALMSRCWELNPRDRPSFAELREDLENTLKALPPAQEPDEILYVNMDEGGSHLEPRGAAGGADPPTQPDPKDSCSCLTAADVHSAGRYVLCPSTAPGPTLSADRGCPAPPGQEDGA

soluble AXL (sAXL) = experiment: Mouse sAXL ELISA in plasma; type: in vivo; details: 12 weeks of treatment; vs WT mice or vehicle treated Nf1flox/flox;PostnCre mice
[5] = system: plexiform neurofibroma tumor tissues; experiment: TUNEL staining of nerve tissues of treated mice; type: in vivo, mouse
DDR1 = target: T2, DDR1 (Mus musculus, UniProt Q03146); experiment: MIB/MS kinome profiling of sciatic nerve tumor tissue after in vivo treatment; details: 7 days of sustained treatment vs vehicle
T2 sequence (Q03146 20-911): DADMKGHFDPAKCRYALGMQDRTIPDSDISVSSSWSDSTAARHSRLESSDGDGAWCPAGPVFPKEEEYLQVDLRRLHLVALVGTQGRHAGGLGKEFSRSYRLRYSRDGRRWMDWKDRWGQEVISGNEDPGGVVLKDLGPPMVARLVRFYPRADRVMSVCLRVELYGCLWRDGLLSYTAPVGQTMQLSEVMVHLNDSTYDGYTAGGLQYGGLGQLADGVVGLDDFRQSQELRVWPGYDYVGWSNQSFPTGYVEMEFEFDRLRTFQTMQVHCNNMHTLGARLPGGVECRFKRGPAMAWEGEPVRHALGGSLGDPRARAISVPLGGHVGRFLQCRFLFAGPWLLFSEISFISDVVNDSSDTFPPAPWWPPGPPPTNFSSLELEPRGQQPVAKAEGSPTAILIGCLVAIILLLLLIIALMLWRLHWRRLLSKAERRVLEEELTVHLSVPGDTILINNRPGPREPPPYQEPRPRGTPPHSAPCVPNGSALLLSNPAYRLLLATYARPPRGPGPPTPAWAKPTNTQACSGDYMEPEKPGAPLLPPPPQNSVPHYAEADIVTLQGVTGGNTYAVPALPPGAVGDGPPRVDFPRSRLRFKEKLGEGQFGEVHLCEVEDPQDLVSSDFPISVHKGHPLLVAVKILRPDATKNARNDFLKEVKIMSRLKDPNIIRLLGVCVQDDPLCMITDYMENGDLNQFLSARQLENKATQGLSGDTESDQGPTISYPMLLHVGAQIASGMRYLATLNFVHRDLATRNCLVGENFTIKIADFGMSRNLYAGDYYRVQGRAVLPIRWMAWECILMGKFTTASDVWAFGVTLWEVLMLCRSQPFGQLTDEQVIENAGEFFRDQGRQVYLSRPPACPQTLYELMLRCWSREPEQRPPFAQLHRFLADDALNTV

DDR2 = target: T3, DDR2 (Mus musculus, UniProt Q62371); experiment: as above; details: 7 days of sustained treatment vs vehicle
T3 sequence (Q62371 22-854): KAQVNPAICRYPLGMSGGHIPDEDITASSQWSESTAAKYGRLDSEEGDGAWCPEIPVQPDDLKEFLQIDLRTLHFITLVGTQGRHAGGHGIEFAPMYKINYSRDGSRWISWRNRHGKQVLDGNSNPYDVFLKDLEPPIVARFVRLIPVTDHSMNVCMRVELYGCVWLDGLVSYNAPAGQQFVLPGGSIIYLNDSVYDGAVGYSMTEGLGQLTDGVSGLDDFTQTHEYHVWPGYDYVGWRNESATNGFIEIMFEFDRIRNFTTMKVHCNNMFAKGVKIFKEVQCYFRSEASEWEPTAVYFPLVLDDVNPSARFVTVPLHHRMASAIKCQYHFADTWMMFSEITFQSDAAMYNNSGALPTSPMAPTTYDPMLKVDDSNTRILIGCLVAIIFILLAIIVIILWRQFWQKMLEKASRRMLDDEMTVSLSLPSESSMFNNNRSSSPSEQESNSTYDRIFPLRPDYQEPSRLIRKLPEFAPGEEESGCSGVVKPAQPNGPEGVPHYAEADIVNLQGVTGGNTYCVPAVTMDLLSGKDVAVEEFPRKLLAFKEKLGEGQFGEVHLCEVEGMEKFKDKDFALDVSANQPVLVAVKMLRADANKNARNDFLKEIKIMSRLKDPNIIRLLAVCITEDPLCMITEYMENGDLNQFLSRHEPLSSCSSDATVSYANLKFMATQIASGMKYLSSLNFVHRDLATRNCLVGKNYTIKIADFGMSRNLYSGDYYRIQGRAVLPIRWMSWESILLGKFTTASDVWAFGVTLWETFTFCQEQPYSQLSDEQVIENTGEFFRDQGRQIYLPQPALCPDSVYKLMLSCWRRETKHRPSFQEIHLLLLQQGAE

AXL [6] = target: T1, AXL; experiment: as above; details: 7 days of sustained treatment vs vehicle
AXL [7] = experiment: pAXL western blot after GAS6 stimulation; type: cell-based; details: GAS6 200-250 ng/mL; cabozantinib 1000-2500 nM; Schwann cells, fibroblasts, ECFCs
[8] = system: NF1-related plexiform neurofibroma; type: in vivo, human
[9] = Phase 2 trial NCT02101736: safety and tolerability; parameters: species or system human; details: in vivo
[10] = type: in vivo, human; details: baseline to cycle 12
[11] = Phase 2 trial NCT02101736: clinical pharmacokinetics; type: in vivo; details: 40 mg dose, human plasma
[12] = system: malignant peripheral nerve sheath tumor (MPNST) murine model; details: cabozantinib and mirdametinib; Nf1 and Trp53 compound mutations; cited from earlier work
plexiform neurofibroma = details: cited from earlier work

Compound: CC1(C)CCC(c2ccc(Cl)cc2)=C(CN2CCN(c3ccc(C(=O)NS(=O)(=O)c4ccc(N[C@H](CCN5CCOCC5)CSc5ccccc5)c(S(=O)(=O)C(F)(F)F)c4)cc3)CC2)C1 [Navitoclax]
apoptosis (caspase 3/7 activity) [1]: robust increase

Tmax ([2]; Nf1flox/flox;PostnCre, mouse, plasma, po, 15 mg/kg): 2 h
maximum concentration in plasma ([2]; single 15mg/kg oral gavage dose, Nf1flox/flox;PostnCre mice, plasma): 6800 ng/mL
maximal concentration in nerve tissue ([2]; single 15mg/kg oral gavage dose, nerve tissue): 636 ng/g
AXL in treated tissues (AXL [4]): significant decline
MIB binding of DDR1 (DDR1): loss of MIB binding
MIB binding of DDR2 (DDR2): loss of MIB binding
MIB binding of AXL (AXL [6]): loss of MIB binding
dose-normalized mean trough level ([11]; Cycle 1 Day 15): 16.5 ng/mL/mg
dose-normalized mean trough level ([11]; end of Cycle 1): 20.7 ng/mL/mg
Compound: COc1cc2nccc(Oc3ccc(NC(=O)C4(C(=O)Nc5ccc(F)cc5)CC4)cc3)c2cc1OC [cabozantinib]
reduction of number of PN per mouse ([3]; 15mg/kg daily oral gavage, 12 weeks, relative to vehicle control): approximately 60%
reduction of mean volume of the proximal peripheral nerve roots ([3]; 15mg/kg daily oral gavage, 12 weeks, vs vehicle): 38%
mast cell infiltration ([3]; toluidine blue stained sections, 12 weeks treatment vs vehicle, P = 0.1013): not significantly changed
neoangiogenesis (blood vessels, CD31 immunohistochemistry) ([3]; treated tumors versus vehicle control, P < 0.0001): significant reduction
sAXL in plasma (soluble AXL (sAXL)): significantly elevated
apoptosis in nerve tissues (TUNEL staining) [5]: negative for TUNEL staining
Gas6 mediated activation of AXL at the biochemical level (pAXL) (AXL [7]): inhibited
apoptosis (caspase 3/7 activity) [1]: does not induce apoptosis
disease progression while on study ([8]; 19 evaluable participants): No patient had disease progression
partial response rate (PR, ≥20% reduction in target lesion volume by MRI) ([8]; 19 evaluable participants, 40 mg escalated to 60 mg once daily): 42% and 42.1%
participants in whom maximal tumor response was not achieved until cycle 18 ([8]; in vivo): 4
participants in whom maximal tumor response was not achieved until cycle 24 ([8]; in vivo): 2
number of participants with PR ([8]; of the 19 participants evaluable for response): 8
participants requiring dose reductions while on study [9]: Seven
participants with grade 3 adverse events [9]: 8
patients requiring dose reduction or discontinuation of therapy due to AEs [9]: Nine
mean decrease in worst tumor pain intensity ([10]; responder group): 3 points
reduction in reported tumor pain (NRS-11), LSM estimate ([10]; responders, p<0.0001): 3.00
change in PedsQL NF1 general pain and hurt scale, LSM estimate ([10]; total sample, p=0.0036, improvement): −14.98
tumor growth in MPNST murine model [12]: reduce growth

Compound: O=C(NOC[C@H](O)CO)c1ccc(F)c(F)c1Nc1ccc(I)cc1F [mirdametinib]
tumor growth in MPNST murine model [12]: reduce growth

Compound: Cn1cnc2c(F)c(Nc3ccc(Br)cc3Cl)c(C(=O)NOCCO)cc21 [selumetinib]
partial response rate (plexiform neurofibroma; children with progressive PN): 74%

Compound: pegylated interferon alfa-2b
clinical outcome in PN (plexiform neurofibroma): only prolonged PN time to progression
